Laboratory results from article PMC5773580, “A synthetic combinatorial approach to disabling deviant Hedgehog signaling” (Scientific Reports, 2018).
Values joined by “and” are separate entries in the source; they are usually repeats but may differ in a detail not shown here. Equal entries are not always repeated.

Legend:
HDAC1 = target: T1, HDAC1 (Homo sapiens, UniProt Q13547); experiment: In vitro HDAC profiling (deacetylation assay), HDAC1; assay type: biochemical; details: for HDAC Activity (Fluorescent counts): Repeat1/Repeat 2
T1 construct: purchased BPS Bioscience #50051-11
Procedure: (§1) HDAC profiling was performed at BPS Bioscience (San Diego, CA). All of the compounds are dissolved in DMSO. A series of dilutions of the compounds were prepared with 10% DMSO in HDAC assay buffer (#50031) and 5 µl of the dilution was added to a 50 µl reaction so that the final concentration of DMSO is 1% in all of reactions. All of the enzymatic reactions were conducted in duplicate at 37 °C for 30 mins, except that the enzyme reactions for HDAC11 were at room temperature for 3 hrs. All of the reactions were performed in a 50 µl mixture containing HDAC assay buffer, 5 µg BSA, an HDAC substrate [HDAC Substrate 3 (BPS number 50037) or HDAC Class 2a Substrate 1 (BPS number 50040)], an HDAC enzyme (#50051-11) and a test compound. After enzymatic reactions, 50 μl of HDAC Developer (#50030) was added to each well and the plate was incubated at room temperature for an additional 20 mins. Fluorescence intensity was measured at an excitation of 360 nm and an emission of 460 nm using a Tecan Infinite M1000 microplate reader. HDAC activity assays were performed in duplicates at each concentration. The fluorescent intensity data were analyzed using the computer software, Graphpad Prism. In the absence of the compound, the fluorescent intensity (Ft) in each data set was defined as 100% activity. In the absence of HDAC, the fluorescent intensity (Fb) in each data set was defined as 0% activity. The percent activity in the presence of each compound was calculated according to the following equation: %activity = (F − Fb)/(Ft − Fb), where F = the fluorescent intensity in the presence of the compound. The values of % activity versus a series of compound concentrations were then plotted using non-linear regression analysis of Sigmoidal dose-response curve generated with the equation Y = B + (T − B)/1 + 10((LogIC50 − X) × Hill Slope), where Y = percent activity, B = minimum percent activity, T = maximum percent activity, X = logarithm of compound and Hill Slope = slope factor or Hill coefficient. The IC50 value was determined by the concentration causing a half-maximal percent activity.

HDAC7 = target: T2, HDAC7 (Homo sapiens, UniProt Q8WUI4); experiment: In vitro HDAC profiling (deacetylation assay), HDAC7; assay type: biochemical; details: for HDAC Activity (Fluorescent counts): Repeat1/Repeat 2
T2 construct: purchased BPS Bioscience #50051-11
T2 sequence (Q8WUI4 1-952): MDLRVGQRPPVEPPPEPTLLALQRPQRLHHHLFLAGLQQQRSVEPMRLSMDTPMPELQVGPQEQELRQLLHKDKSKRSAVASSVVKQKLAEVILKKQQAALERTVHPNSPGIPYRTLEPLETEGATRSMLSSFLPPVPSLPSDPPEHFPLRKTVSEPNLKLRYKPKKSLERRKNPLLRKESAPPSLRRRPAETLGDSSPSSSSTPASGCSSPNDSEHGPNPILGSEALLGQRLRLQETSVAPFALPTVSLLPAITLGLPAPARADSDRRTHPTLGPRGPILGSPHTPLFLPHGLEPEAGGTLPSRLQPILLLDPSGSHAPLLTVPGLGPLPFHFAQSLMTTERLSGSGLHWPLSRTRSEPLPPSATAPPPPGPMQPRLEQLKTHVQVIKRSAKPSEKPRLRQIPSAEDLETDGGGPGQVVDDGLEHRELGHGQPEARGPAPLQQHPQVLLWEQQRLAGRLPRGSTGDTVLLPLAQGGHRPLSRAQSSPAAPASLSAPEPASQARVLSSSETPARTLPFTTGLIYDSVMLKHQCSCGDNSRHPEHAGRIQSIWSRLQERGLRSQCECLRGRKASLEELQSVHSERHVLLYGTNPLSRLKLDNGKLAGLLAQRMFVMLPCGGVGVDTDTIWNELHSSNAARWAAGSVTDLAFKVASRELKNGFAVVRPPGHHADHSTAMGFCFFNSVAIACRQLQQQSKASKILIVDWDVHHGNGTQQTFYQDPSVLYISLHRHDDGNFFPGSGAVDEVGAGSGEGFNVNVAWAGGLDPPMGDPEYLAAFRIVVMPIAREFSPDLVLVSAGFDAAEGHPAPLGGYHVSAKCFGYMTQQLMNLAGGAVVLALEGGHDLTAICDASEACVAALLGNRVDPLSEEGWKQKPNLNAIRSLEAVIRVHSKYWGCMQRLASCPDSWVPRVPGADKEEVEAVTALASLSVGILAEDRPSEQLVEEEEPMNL
Procedure: as §1

[1] = test system: GLI-BS reporter in Ptch1-/- MEFs; experiment: GLI-BS reporter assay in Ptch1-/- MEFs; assay type: cell-based
Procedure: (§2) The HH-responsive firefly luciferase reporter (GLI-BS) and a control Renilla luciferase reporter (SV40-RL) were transfected into indicated cell lines using Effectene (Qiagen) either alone or with indicated DNAs. 24 hrs after transfection, cells were switched to low serum media (3% calf serum), and grown for another 48 hrs. in 5% CO2 in the presence/absence of compounds. 3T3-ShhFL cell line that stably expressing SHH and the two reporters were cultured in a similar fashion. FL and RL activities in lysate generated using Passive Lysis Buffer (Promega) were then assessed using the Dual-Luciferase kit (Promega) and a 96-well plate reading luminometer (BMG). The ratio of FL/RL was calculated and the averaged ratios from three replicates were reported.

[2] = test system: SMO-M2 in NIH3T3 (GLI-BS reporter); experiment: GLI-BS reporter assay, NIH3T3 cells with SMO-M2 DNA; assay type: cell-based; details: Mus musculus
Procedure: as §2

[3] = test system: HDAC activity (acetylated tubulin) in NIH-3T3 cells; experiment: Acetylation assay, Western blot of acetylated tubulin; assay type: cell-based; details: 48hrs
Procedure: For analyzing acetylation status of histone 3 and tubulin, NIH3T3 cells were grown to confluence in 6-well plates. After 48hrs of treatment with indicated chemicals, cells were lysed in RIPA buffer or 1% NP40/phosphate buffered saline/protease inhibitors (SIGMA, #S8820), the lysate cleared using a microcentrifuge, then 6 × sample loading buffer (Bioland Scientific) added to the supernatant. Proteins were separated on SDS-PAGE (BioRad Criterion TGX Precast Gels). Antibodies used for analyzing the blots were: acetylated tubulin (SIGMA, #T6793), tubulin, acetyl-histone H3 (Lys23), and histone H3 (Cell Signaling Technology, #2125 S, #8848 and #9717, respectively). Chemiluminescence was detected using a Li-COR Odyssey Imaging System.

[4] = in vitro deacetylation assay, duplicates

T1 sequence (Q13547 whole entry): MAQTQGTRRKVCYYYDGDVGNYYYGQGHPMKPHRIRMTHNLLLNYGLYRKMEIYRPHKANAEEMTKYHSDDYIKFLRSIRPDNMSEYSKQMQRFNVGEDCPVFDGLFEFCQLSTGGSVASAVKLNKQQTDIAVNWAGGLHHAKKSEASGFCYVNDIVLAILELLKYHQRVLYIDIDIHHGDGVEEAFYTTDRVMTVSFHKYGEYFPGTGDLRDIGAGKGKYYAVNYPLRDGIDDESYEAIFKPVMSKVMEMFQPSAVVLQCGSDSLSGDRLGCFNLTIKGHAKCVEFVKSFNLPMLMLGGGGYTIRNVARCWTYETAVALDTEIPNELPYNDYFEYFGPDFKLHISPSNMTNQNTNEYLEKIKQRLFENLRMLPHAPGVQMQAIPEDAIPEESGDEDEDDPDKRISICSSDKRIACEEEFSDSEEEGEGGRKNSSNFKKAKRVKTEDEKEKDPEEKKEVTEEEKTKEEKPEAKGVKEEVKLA

O=C(CCCCCCC(=O)Nc1ccc(Cl)c(C(=O)Nc2ccc(NC(=O)c3cc(Cl)ccc3Cl)cc2)c1)NO [IHR-SAHA] was tested, and the “HDAC Activity (Fluorescent counts)” value (HDAC1; HDAC1, WW01 0 Log nM) was 31058 Fluorescent counts and 32831 Fluorescent counts, the “HDAC Activity (Fluorescent counts)” value (HDAC1; HDAC1, WW01 0.5 Log nM) was 31900 Fluorescent counts and 30926 Fluorescent counts and the “HDAC Activity (Fluorescent counts)” value (HDAC1; HDAC1, WW01 1 Log nM) was 29505 Fluorescent counts and 28223 Fluorescent counts. The “HDAC Activity (Fluorescent counts)” value (HDAC1; HDAC1, WW01 1.5 Log nM) was 27089 Fluorescent counts and 26820 Fluorescent counts, the “HDAC Activity (Fluorescent counts)” value (HDAC1; HDAC1, WW01 2 Log nM) was 21883 Fluorescent counts and 21225 Fluorescent counts and the “HDAC Activity (Fluorescent counts)” value (HDAC1; HDAC1, WW01 2.5 Log nM) was 19997 Fluorescent counts and 14409 Fluorescent counts. For the same molecule, the “HDAC Activity (Fluorescent counts)” value (HDAC1; HDAC1, WW01 3 Log nM) was 9008 Fluorescent counts and 8923 Fluorescent counts, the “HDAC Activity (Fluorescent counts)” value (HDAC1; HDAC1, WW01 3.5 Log nM) was 7360 Fluorescent counts and 7292 Fluorescent counts and the “HDAC Activity (Fluorescent counts)” value (HDAC1; HDAC1, WW01 4 Log nM) was 6195 Fluorescent counts and 6043 Fluorescent counts. For the same molecule, the “HDAC Activity (Fluorescent counts)” value (HDAC1; HDAC1, WW01 -0.5 Log nM) was 31660 Fluorescent counts and 32681 Fluorescent counts, the IC50 (HDAC1; [4]) was 285 nM and the “HDAC Activity (Fluorescent counts)” value (HDAC7; HDAC7, WW01 0 Log nM) was 32252 Fluorescent counts and 31868 Fluorescent counts. For the same molecule, the “HDAC Activity (Fluorescent counts)” value (HDAC7; HDAC7, WW01 0.5 Log nM) was 34296 Fluorescent counts and 32176 Fluorescent counts, the “HDAC Activity (Fluorescent counts)” value (HDAC7; HDAC7, WW01 1 Log nM) was 33398 Fluorescent counts and 31906 Fluorescent counts and the “HDAC Activity (Fluorescent counts)” value (HDAC7; HDAC7, WW01 1.5 Log nM) was 32702 Fluorescent counts and 31126 Fluorescent counts. The “HDAC Activity (Fluorescent counts)” value (HDAC7; HDAC7, WW01 2 Log nM) was 31277 Fluorescent counts and 30567 Fluorescent counts, the “HDAC Activity (Fluorescent counts)” value (HDAC7; HDAC7, WW01 2.5 Log nM) was 29706 Fluorescent counts and 30369 Fluorescent counts and the “HDAC Activity (Fluorescent counts)” value (HDAC7; HDAC7, WW01 3 Log nM) was 26605 Fluorescent counts and 26320 Fluorescent counts. For the same molecule, the “HDAC Activity (Fluorescent counts)” value (HDAC7; HDAC7, WW01 3.5 Log nM) was 26104 Fluorescent counts and 24955 Fluorescent counts, the “HDAC Activity (Fluorescent counts)” value (HDAC7; HDAC7, WW01 4 Log nM) was 25321 Fluorescent counts and 25226 Fluorescent counts and the “HDAC Activity (Fluorescent counts)” value (HDAC7; HDAC7, WW01 -0.5 Log nM) was 33125 Fluorescent counts and 32259 Fluorescent counts. The IC50 (HDAC7; [4]) was greater than 10000 nM, the IC50 [1] was 15 nM and the IC50 [2] was 80 nM. The “HDAC inhibitory activity, acetylated tubulin accumulation (ratio to total tubulin), compared with SAHA” value [3] was “increase in anti-HDAC activity”.
